Test results from the supplement of paper PMC8149375.

What was measured:
Details in all cases: treatment: drug alone; 5 days
[1] = test system: 769-P; assay: GI50, drug alone; higher = less potent
Protocol: (§1)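 Primary HTS: 8 RCC cell lines treated with 8 doses (up to 10 uM) of each library drug alone for 5 days; viability read by CellTiter-Glo and normalised to DMSO. GI50 was fitted with XLfit (4-parameter), AUC is the area under the dose-response curve, and minimum viability is the lowest fraction of DMSO viability across doses.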

[2] = test system: 786-O; assay: GI50, drug alone; higher = less potent
Protocol: as §1

[3] = test system: A498; assay: GI50, drug alone; higher = less potent
Protocol: as §1

[4] = test system: ACHN; assay: GI50, drug alone; higher = less potent
Protocol: as §1

[5] = test system: CAKI-1; assay: GI50, drug alone; higher = less potent
Protocol: as §1

[6] = test system: SN12C; assay: GI50, drug alone; higher = less potent
Protocol: as §1

[7] = test system: TK-10; assay: GI50, drug alone; higher = less potent
Protocol: as §1

[8] = test system: UO-31; assay: GI50, drug alone; higher = less potent
Protocol: as §1

[9] = test system: 769-P; assay: minimum viability across doses, drug alone, relative to DMSO (fraction); higher = less growth inhibition
Protocol: as §1

[10] = test system: 786-O; assay: as above
Protocol: as §1

[11] = test system: A498; assay: as above
Protocol: as §1

[12] = test system: ACHN; assay: as above
Protocol: as §1

[13] = test system: CAKI-1; assay: as above
Protocol: as §1

[14] = test system: SN12C; assay: as above
Protocol: as §1

[15] = test system: TK-10; assay: as above
Protocol: as §1

[16] = test system: UO-31; assay: as above
Protocol: as §1

[17] = test system: 769-P; assay: AUC of dose-response viability curve, drug alone (arbitrary (AUC of normalised viability)); higher = less growth inhibition
Protocol: as §1

[18] = test system: 786-O; assay: as above
Protocol: as §1

[19] = test system: A498; assay: as above
Protocol: as §1

[20] = test system: ACHN; assay: as above
Protocol: as §1

[21] = test system: CAKI-1; assay: as above
Protocol: as §1

[22] = test system: SN12C; assay: as above
Protocol: as §1

[23] = test system: TK-10; assay: as above
Protocol: as §1

[24] = test system: UO-31; assay: as above
Protocol: as §1

Compound | GI50, drug alone [2] [µM] | GI50, drug alone [4] [µM] | GI50, drug alone [1] [µM] | GI50, drug alone [3] [µM] | GI50, drug alone [5] [µM] | GI50, drug alone [6] [µM] | GI50, drug alone [7] [µM] | GI50, drug alone [8] [µM] | minimum viability across doses [9] | minimum viability across doses [10] | minimum viability across doses [11] | minimum viability across doses [12] | minimum viability across doses [13] | minimum viability across doses [14] | minimum viability across doses [15] | minimum viability across doses [16] | AUC of dose-response viability curve [17] | AUC of dose-response viability curve [18] | AUC of dose-response viability curve [19] | AUC of dose-response viability curve [20] | AUC of dose-response viability curve [21] | AUC of dose-response viability curve [22] | AUC of dose-response viability curve [23] | AUC of dose-response viability curve [24]
CN(C)c1ccc(-c2nc3c(N4CCN(CC(=O)Nc5nccs5)CC4)c(Cl)cnc3[nH]2)cc1 | 2.76 | 1.86 | 5.51 | > 10 | 1.26 | 5.4 | > 10 | 2.01 | 0.39 | 0.259 | 0.622 | 0.18 | 0.115 | 0.434 | 0.574 | 0.0202 | 2.85 | 2.24 | 4.21 | 2.58 | 2.57 | 2.76 | 2.91 | 3.93
CC(C)(C)c1cc(C=C(C#N)C#N)cc(Br)c1O [AG-1024] | > 10 | > 10 | > 10 | > 10 | > 10 | > 10 | > 10 | > 10 | 0.853 | 0.729 | 1.02 | 0.904 | 0.846 | 0.919 | 0.791 | 1.24 | 3.41 | 2.78 | 3.94 | 3.56 | 3.65 | 3.53 | 3.13 | 4.79
COc1cc2ncnc(Nc3cccc(Cl)c3)c2cc1OC [AG-1478 (Tyrphostin AG-1478)] | 5.49 | 1.16 | 3.24 | > 10 | > 10 | > 10 | 2.85 | > 10 | 0.481 | 0.179 | 1.01 | 0.37 | 0.628 | 0.813 | 0.472 | 0.795 | 2.48 | 2.32 | 4.85 | 2.24 | 2.91 | 2.95 | 2.36 | 4.04
c1ccc2c(-c3cnn4cc(-c5ccc(N6CCNCC6)cc5)cnc34)ccnc2c1 | 8.26 | 2.01 | 2.6 | 8.21 | 1.63 | 2.8 | 7.73 | 7.44 | 0.00246 | 0.0032 | 0.00414 | 0.00139 | 0.00218 | 0.00261 | 0.00522 | 0.00507 | 2.86 | 3.55 | 3.76 | 2.68 | 2.96 | 2.88 | 2.64 | 6.11
CN(C)CCOc1ccc(-c2nc(-c3ccncc3)c(-c3ccc4c(c3)CC/C4=N/O)[nH]2)cc1 | 7.91 | 8.61 | 8.71 | 8.04 | 9.32 | > 10 | > 10 | > 10 | 0.177 | 0.0071 | 0.0435 | 0.167 | 0.308 | 0.706 | 0.575 | 0.573 | 3.44 | 2.94 | 4.26 | 3.51 | 3.77 | 3.3 | 3.35 | 5.65
O=C1NC(=O)/C(=C/c2ccc3c(c2)OC(F)(F)O3)S1 | > 10 | > 10 | > 10 | > 10 | > 10 | > 10 | > 10 | > 10 | 0.947 | 0.474 | 0.83 | 0.93 | 0.98 | 0.775 | 0.858 | 0.92 | 3.5 | 2.35 | 3.81 | 3.46 | 3.54 | 3.07 | 3.24 | 4.4
COc1cccc(-c2cc(=O)c3ccccc3o2)c1N | > 10 | > 10 | > 10 | > 10 | > 10 | > 10 | > 10 | > 10 | 0.903 | 0.69 | 1.03 | 0.861 | 0.83 | 0.873 | 0.817 | 1.36 | 3.39 | 2.79 | 4.28 | 3.35 | 3.19 | 3.4 | 3.09 | 5.36
COCCOc1ccc2c(c1)ncn2-c1ccc2cccc(N3CCC(N)CC3)c2n1 | 0.631 | 2.48 | 6.04 | 3.3 | 2.11 | 2.8 | 2.12 | 2.91 | 0.333 | 0.00547 | 0.0414 | 0.0176 | 0.292 | 0.0384 | 0.198 | 0.00652 | 3.12 | 1.81 | 3.27 | 2.7 | 2.66 | 2.92 | 2.43 | 3.38
Cc1cnc(Nc2ccc(OCCN3CCCC3)cc2)nc1Nc1cccc(S(=O)(=O)NC(C)(C)C)c1 | 1.9 | 0.662 | 3.4 | 5.64 | 1.03 | 2.31 | 0.758 | 2.74 | 0.0319 | 0.00721 | 0.0772 | 0.00347 | 0.00962 | 0.00707 | 0.00422 | 0.013 | 3.09 | 2.76 | 3.49 | 2.25 | 2.54 | 2.71 | 2.19 | 3.79
O=C(Nc1c[nH]nc1-c1nc2cc(CN3CCOCC3)ccc2[nH]1)NC1CC1 [AT9283] | 0.1 | 0.344 | 0.241 | 0.777 | 0.414 | 1.1 | 0.456 | 0.25 | 0.0255 | 0.00681 | 0.0125 | 0.0159 | 0.0418 | 0.00789 | 0.0596 | 0.00945 | 1.97 | 1.58 | 2.74 | 1.86 | 2.22 | 2.63 | 2.1 | 2.05
O=C(NOCC1CC1)c1ccc(F)c(F)c1Nc1ccc(I)cc1Cl | 4.38 | 3.51 | 5.01 | > 10 | 4.19 | > 10 | 4.99 | > 10 | 0.233 | 0.41 | 0.593 | 0.263 | 0.23 | 0.467 | 0.362 | 0.779 | 2.96 | 2.98 | 3.44 | 2.78 | 3.04 | 2.86 | 2.68 | 4.14
CC1(C)CCC(CN2CCN(c3ccc(C(=O)NS(=O)(=O)c4ccc(NCC5CCOCC5)c([N+](=O)[O-])c4)c(Oc4cnc5[nH]ccc5c4)c3)CC2)=C(c2ccc(Cl)cc2)C1 [ABT-199 (GDC-0199 )] | < 0.003 | > 10 | > 10 | > 10 | > 10 | > 10 | > 10 | > 10 | 0.88 | 0.442 | 0.915 | 0.847 | 0.846 | 0.821 | 0.617 | 1.02 | 3.47 | 2.19 | 3.73 | 3.16 | 3.28 | 3.19 | 3.06 | 3.98
C#Cc1cccc(Nc2ncnc3cc(OCCOC)c(OCCO)cc23)c1 | > 10 | 0.472 | 3.48 | > 10 | 2.84 | > 10 | 2.61 | > 10 | 0.396 | 0.531 | 0.994 | 0.097 | 0.159 | 0.645 | 0.402 | 1.05 | 2.71 | 2.98 | 4.38 | 2.13 | 2.93 | 3.24 | 2.39 | 4.22

More lines, main results first:

GI50, drug alone [2] [µM] | GI50, drug alone [4] [µM] | Compound | GI50, drug alone [1] [µM] | GI50, drug alone [3] [µM] | GI50, drug alone [5] [µM] | GI50, drug alone [6] [µM] | GI50, drug alone [7] [µM] | GI50, drug alone [8] [µM] | minimum viability across doses [9] | minimum viability across doses [10] | minimum viability across doses [11] | minimum viability across doses [12] | minimum viability across doses [13] | minimum viability across doses [14] | minimum viability across doses [15] | minimum viability across doses [16] | AUC of dose-response viability curve [17] | AUC of dose-response viability curve [18] | AUC of dose-response viability curve [19] | AUC of dose-response viability curve [20] | AUC of dose-response viability curve [21] | AUC of dose-response viability curve [22] | AUC of dose-response viability curve [23] | AUC of dose-response viability curve [24]
< 0.003 | 1.84 | COc1cc(N2CCC(N3CCN(C)CC3)CC2)ccc1Nc1ncc(Cl)c(Nc2ccccc2S(=O)(=O)C(C)C)n1 [TAE684 (NVP-TAE684)] | > 10 | 1.43 | 2.33 | 2.62 | 3.59 | > 10 | 0.722 | 0.124 | 0.399 | 0.237 | 0.255 | 0.182 | 0.356 | 0.927 | 3.21 | 1.87 | 3.29 | 2.65 | 2.9 | 2.74 | 2.82 | 4.34
> 10 | > 10 | CS(=O)(=O)O.N#CC1(c2ccc(NC(=O)c3cccnc3NCc3ccncc3)cc2)CCCC1 [Apatinib (YN968D1)] | > 10 | > 10 | > 10 | > 10 | > 10 | 8.33 | 0.901 | 0.648 | 1.02 | 0.676 | 0.666 | 0.799 | 0.739 | 0.126 | 3.53 | 3.23 | 4.78 | 3.21 | 2.93 | 3.39 | 2.84 | 5.2
< 0.003 | > 10 | CC(C)(C)c1cc(/C=C(\C#N)C(N)=S)cc(C(C)(C)C)c1O [Tyrphostin AG 879 (AG 879)] | > 10 | > 10 | > 10 | > 10 | > 10 | > 10 | 0.91 | 0.257 | 1.02 | 0.78 | 0.712 | 0.787 | 0.748 | 1.28 | 3.56 | 1.6 | 4.17 | 3.12 | 3.62 | 3.11 | 2.95 | 5.27
0.0528 | 0.962 | CNC(=O)c1ccccc1Nc1nc(Nc2ccc(N3CCOCC3)cc2OC)ncc1Cl [NVP-TAE226] | 2.76 | > 10 | 1.36 | 5.13 | 0.551 | 8.15 | 0.29 | 0.00915 | 0.703 | 0.102 | 0.0558 | 0.295 | 0.102 | 0.398 | 2.93 | 1.15 | 4.76 | 2.43 | 2.64 | 2.95 | 2.12 | 3.21
3.93 | > 10 | CCCNC(=O)Nc1ccc(Oc2ncnc3cc(OC)c(OC)cc23)cc1Cl [KRN 633] | > 10 | > 10 | > 10 | > 10 | > 10 | > 10 | 0.861 | 0.366 | 0.974 | 0.742 | 0.817 | 0.718 | 0.664 | 0.734 | 3.34 | 2.11 | 4.07 | 2.92 | 3.24 | 2.93 | 2.8 | 3.91
2.91 | 1.28 | C=CC(=O)Nc1cccc(Sc2nc(Nc3ccc(N4CCN(C)CC4)cc3)ncc2Cl)c1 [WZ8040] | 2.96 | 9.25 | 2.31 | 4.06 | 2.09 | 8.21 | 0.0235 | 0.00441 | 0.282 | 0.0112 | 0.00227 | 0.00541 | 0.024 | 0.0196 | 2.81 | 2.46 | 3.77 | 2.45 | 2.51 | 2.85 | 2.42 | 3.39
